In patent EP0194158A2, “Anti-nicotine and anti-cotinine antibodies (monoclonal and other), and their uses in nicotine and cotinine assays” (Baylor College of Medicine, priority 1985, dated 1986):
Like-named read-outs stand apart in the source and are kept apart here.

Legend:
[1] = molecular target: monoclonal antibody Anti-cotinine 305E5; assay: sandwich ELISA, inhibition of binding of monoclonal antibody to solid phase hapten (specificity); set-up: species or system mouse
Source text: (§1) Control values were less than 0.05 absorbance unit.

[2] = tested on: monoclonal antibody Anti-nicotine 402C10; assay: as above; set-up: species or system mouse
Source text: as §1

[3] = molecular target: monoclonal antibody Anti-cotinine 305E5, isotype IgG2bk; assay: binding affinity constant K (method of R. Muller); set-up: species or system mouse; details: value is K multiplied by 10^-8
[4] = molecular target: monoclonal antibody Anti-cotinine 206F8, isotype IgAlambda; assay: binding affinity constant K (method of R. Muller); set-up: species or system mouse; details: value is K multiplied by 10^-8
[5] = molecular target: monoclonal antibody Anti-cotinine 308C11, isotype IgG1k; assay: binding affinity constant K (method of R. Muller); set-up: species or system mouse; details: value is K multiplied by 10^-8
[6] = molecular target: monoclonal antibody Anti-cotinine 309G5, isotype IgG1k; assay: binding affinity constant K (method of R. Muller); set-up: species or system mouse; details: value is K multiplied by 10^-8
[7] = tested on: the 4 anticotinine antibodies (McAb); assay: sandwich ELISA, inhibition by homologous hapten, all anti-cotinine McAb; assay type: binding, mouse; details: range over the 4 antibodies; each McAb diluted to give A490 1.0-1.2 without inhibitor
Protocol: as §1
Only 0.02 ng cotinine inhibited by 15%.

[8] = tested on: the 6 cotinine antisera (rabbit); assay: ELISA with rabbit antisera, no second antibody; assay type: binding; details: range over the 6 antisera
Source text: In these assays, no second antibody is required, because all rabbit IgG binds HRP-SpA (J.W. Goding, 20 J. Immunol. Methods 241 (1978)).

[9] = tested on: Monoclonal Antibody 206F8 (anti-cotinine); assay: Fluorescent (fluorometric) ELISA; assay type: binding, mouse; details: nanograms of cotinine inhibitor required for 50% inhibition
Protocol: (§2) b. Fluorometric ELISA: The wells of polystyrene microtiter plates (Immulon 2; Dynatech Laboratories, Alexandria, VA) were coated respectively with 0.004 and 0.016 ug of polylysine-cotinine and polylysine-nicotine conjugate (0.1 ml) in 3 mM phosphate buffer, and incubated overnight at 4°C, pH 6.3. After aspiration, the wells were blocked with 0.2 ml casein buffer (0.01M Tris-buffered saline, pH 7.6., containing 0.01M EDTA and 0.2% vitamin-free casein (Nutritional Biochemicals, Cleveland, OH)) for 1 hour at room temperature, and then washed once with 0.2 ml of the same buffer and again aspirated. Assays were performed in 0.1 ml total volume per well using 0.050 ml diluted ascites (0.025 ml sample), and 0.025 ml nicotine or cotinine. Plates were incubated overnight at 4°C, washed three times with 0.2 ml casein buffer and then 0.1 ml biotin conjugated sheep anti-mouse IgG (Cooper Biomedical, Malvern, PA) diluted 1/250 with casein buffer was added. After incubation for 3 hours at room temperature, the plates were washed three times with 0.2 ml casein buffer, and streptavidin (0.5 ug) was added to each well, incubated for 1 hour at room temperature and washed as before. 0.1 ml of biotinylated alkaline phosphatase (Zymed, South San Francisco, CA) diluted 1/200 was added to each well, the plates were incubated for 1 hour at room temperature, washed with 0.2 ml PBS containing 0.05% Tween-20, and then washed three times with 0.2 ml of 0.01 M Tris-buffered saline, pH 7.6. 0.1 ml of substrate was added containing 2.5 mM 4-methylumbelliferyl phosphate dissolved in buffer containing diethanolamine (20% v/v) pH 10, 1 mM MgClz, and 9 mM levamisol. Fluorescence was measured with a Microfluor fluorometer (Dynatech Laboratories) at an excitation wavelength of 365 nm and emission wavelength of 450 nm. The plates were read right after substrate was added and again at 30 minute intervals. (Plates should be stored in the dark).

[10] = tested on: Monoclonal Antibody 305E5 (anti-cotinine); assay: Fluorescent (fluorometric) ELISA; assay type: binding, mouse; details: nanograms of cotinine inhibitor required for 50% inhibition
Protocol: as §2

[11] = tested on: Monoclonal Antibody 308C11 (anti-cotinine); assay: Fluorescent (fluorometric) ELISA; assay type: binding, mouse; details: nanograms of cotinine inhibitor required for 50% inhibition
Protocol: as §2

[12] = tested on: Monoclonal Antibody 309G5 (anti-cotinine); assay: Fluorescent (fluorometric) ELISA; assay type: binding, mouse; details: nanograms of cotinine inhibitor required for 50% inhibition
Protocol: as §2

[13] = tested on: Rabbit Antibody 481D (anti-cotinine); assay: Fluorescent (fluorometric) ELISA; assay type: binding; details: nanograms of cotinine inhibitor required for 50% inhibition
[14] = tested on: Rabbit Antibody 113D (anti-cotinine); assay: Fluorescent (fluorometric) ELISA; assay type: binding; details: nanograms of cotinine inhibitor required for 50% inhibition
Protocol: as §2

[15] = tested on: Rabbit Antibody 494D (anti-cotinine); assay: Fluorescent (fluorometric) ELISA; assay type: binding; details: nanograms of cotinine inhibitor required for 50% inhibition
Protocol: as §2

[16] = tested on: Rabbit Antibody 495D (anti-cotinine); assay: Fluorescent (fluorometric) ELISA; assay type: binding; details: nanograms of cotinine inhibitor required for 50% inhibition
Protocol: as §2

[17] = tested on: Rabbit Antibody 482D (anti-cotinine); assay: Fluorescent (fluorometric) ELISA; assay type: binding; details: nanograms of cotinine inhibitor required for 50% inhibition
[18] = molecular target: monoclonal antibody Anti-nicotine 203G3, isotype IgMlambda; details: read-out: K; binding affinity constant; value is K multiplied by 10^-8
Protocol: (§3) The binding affinity constant (K; an indication of binding strength), was measured by the method described in R. Muller, 34 J. Immunol. Methods 345 (i980). The concentration of antibody in the ascites fluid was also measured by a method described in R. Muller, id.

[19] = molecular target: monoclonal antibody Anti-nicotine 301C4, isotype IgG1lambda; details: read-out: K; binding affinity constant; value is K multiplied by 10^-8
Protocol: as §3

[20] = molecular target: monoclonal antibody Anti-nicotine 302A12, isotype IgG1k; details: read-out: K; binding affinity constant; value is K multiplied by 10^-8
Protocol: as §3

[21] = molecular target: monoclonal antibody Anti-nicotine 302G3, isotype IgG1lambda; details: read-out: K; binding affinity constant; value is K multiplied by 10^-8
Protocol: as §3

[22] = molecular target: monoclonal antibody Anti-nicotine 303C10, isotype IgG2k; details: read-out: K; binding affinity constant; value is K multiplied by 10^-8
Protocol: as §3

[23] = molecular target: monoclonal antibody Anti-nicotine 303C5, isotype IgG1lambda; details: read-out: K; binding affinity constant; value is K multiplied by 10^-8
Protocol: as §3

[24] = molecular target: monoclonal antibody Anti-nicotine 304A4, isotype IgG1k; details: read-out: K; binding affinity constant; value is K multiplied by 10^-8
Protocol: as §3

[25] = molecular target: monoclonal antibody Anti-nicotine 304A7, isotype IgG1lambda; details: read-out: K; binding affinity constant; value is K multiplied by 10^-8
Protocol: as §3

[26] = molecular target: monoclonal antibody Anti-nicotine 402C10, isotype IgG2ak; details: read-out: K; binding affinity constant; value is K multiplied by 10^-8
Protocol: as §3

[27] = tested on: the 9 antinicotine antibodies (McAb)
Protocol: The specificity of two of the antibodies (anti-nicotine 402Cl0 and anti-cotinine 305E5) was analyzed,. using a modification of the sandwich ELISA technique, which technique is described in detail below. In essence, specificity was determined by discerning how much structually related substance need be added to inhibit binding of monoclonal antibody to solid phase hapten by 50%. The assays were carried out in wells coated with 0.012 ug nicotine- or cotinine-polylysine conjugate, and with anti-nicotine and anti-cotinine diluted 1:729,000.
The modification involved use of 0.01 m1 of serially diluted standard nicotine or cotinine, (known amounts of inhibitors to assess antibody specificity), or test samples (eg. saliva) added to 0.04 ml casein buffer before its incubation with monoclonal antibodies. Maximum A490 values (i.e., maximum antibody binding) were determined using casein buffer (0.01 ml) in place of inhibitor. […] Control values were less than 0.05 absorbance unit. […]
After the preparation, to determine McAb binding, 0.05 ml diluted ascites fluid was added to 0.05 ml casein buffer and the plates were incubated overnight at 4°C. […] Color development was stopped by addition of 0.05 ml 4N sulfuric acid, and the A490 nm values were measured in the ELISA reader.

[28] = tested on: single rabbit antinicotine serum
Source text: Also developed were similar ELISAs using rabbit antisera, that being prepared as described in J.J. Langone et al., Biochemistry (1973) supra; J.J. Langone, H. Van Vunakis, Methods in Enzymology (1982) supra. In these assays, no second antibody is required, because all rabbit IgG binds HRP-SpA (J.W. Goding, 20 J. Immunol. Methods 241 (1978)).

[29] = wells coated with 0.012 ug cotinine-polylysine conjugate, anti-cotinine diluted 1:729,000, total volume 0.1 ml
[30] = wells coated with 0.012 ug nicotine-polylysine conjugate, anti-nicotine diluted 1:729,000, total volume 0.1 ml
[31] = at 700 ng, the highest amount printed in the cell

With (-)-cotinine N'-oxide the “Nanograms required for 50% inhibition” value [1, 29] was 4.6 Nanograms, the “inhibition (per cent in brackets)” value ([2]; at the 1,000 ng level) was 0% and the “Nanograms required for 50% inhibition” value [2, 30] was > 1,000 Nanograms.
With `CN1CCCC1c1ccc(N)nc1` (stereo not drawn) [6-aminonicotine] the “Nanograms required for 50% inhibition” value [1, 29] was 8,500 Nanograms and the “Nanograms required for 50% inhibition” value [2, 30] was 35.0 Nanograms.
`C[N+]1([O-])CCCC1c1cccnc1` (stereo not drawn) [nicotine N'-oxide] was tested, and the “Nanograms required for 50% inhibition” value [1, 29] was 490 Nanograms and the “Nanograms required for 50% inhibition” value [2, 30] was 81.0 Nanograms.
For `O=C1CCC(c2cccnc2)N1` (stereo not drawn) [desmethylcotinine], the “fold more required for 50% inhibition compared to homologous hapten” value ([1]; ratio to (S)-(-)-cotinine) was 13 fold, the “Nanograms required for 50% inhibition” value [1, 29] was 1.6 Nanograms and the “Nanograms required for 50% inhibition” value [2, 30] was 10,000 Nanograms.
`CN1CCC[C@@H]1c1cccnc1` [(R)-(+)-nicotine] was tested, and the “Nanograms required for 50% inhibition” value [1] was 320 Nanograms, the “Nanograms required for 50% inhibition” value [2] was 6.4 Nanograms and the “times more required for 50% inhibition than (S)-(-)-nicotine” value [2] was “Twenty-five”.
In the case of `c1cncc(C2=NCCC2)c1` [myosmine], the “Nanograms required for 50% inhibition” value [1, 29] is reported as 220 Nanograms, the “inhibition (per cent in brackets)” value [2, 31] is reported as 13% and the “Nanograms required for 50% inhibition” value [2, 30] is reported as over 700 Nanograms.
For `CN1CCCC1CCO` (stereo not drawn) [1-methyl-2-pyrrolidine ethanol], the “Nanograms required for 50% inhibition” value [1, 29] was 6,950 Nanograms and the “Nanograms required for 50% inhibition” value [2, 30] was 5.4 Nanograms.
For `CN1CCCC1c1cccnc1N` (stereo not drawn) [2-aminonicotine], the “Nanograms required for 50% inhibition” value [1, 29] was 1,700 Nanograms and the “Nanograms required for 50% inhibition” value [2, 30] was 14.0 Nanograms.
In the case of `CN1CCCC1c1ccc(O)nc1` (stereo not drawn) [6-hydroxynicotine], the “Nanograms required for 50% inhibition” value [1, 29] is reported as 330 Nanograms, the “times more required for 50% inhibition than (S)-(-)-nicotine” value ([2]; ratio to the naturally occurring isomer) is reported as 5 fold and the “Nanograms required for 50% inhibition” value [2, 30] is reported as 1.3 Nanograms.
With `c1cncc([C@@H]2CCCN2)c1` [(-)-nornicotine] the “Nanograms required for 50% inhibition” value [1] was 50.0 Nanograms and the “Nanograms required for 50% inhibition” value [2] was 95.0 Nanograms.
In the case of `O=NN1CCCC1c1cccnc1` (stereo not drawn) [N'-nitrosonornicotine], the “Nanograms required for 50% inhibition” value [1, 29] is reported as 6.5 Nanograms, the “inhibition (per cent in brackets)” value [2, 31] is reported as 31% and the “Nanograms required for 50% inhibition” value [2, 30] is reported as over 700 Nanograms.
Work on `CN1C(=O)CC[C@H]1c1cccnc1` [(S)-(-)-cotinine] yielded a Kd [3] of 1.76 nM, a Kd [4] of 5.41 nM and a Kd [5] of 3.21 nM. The Kd [6] was 1.32 nM, the inhibition ([1]; 0.02 ng cotinine) was 15% and the “Nanograms required for 50% inhibition” value [1, 29] was 0.12 Nanograms. The “Nanograms required for 50% inhibition” value [2, 30] was 1,000 Nanograms, the 50% inhibition [7] was 0.038 to 0.12 ng and the 50% inhibition values [8] was 0.3 to 1.2 ng. The “I 50%” value [9] was 0.255 nanograms, the “I 50%” value [10] was 0.024 nanograms and the “I 50%” value [11] was 0.033 nanograms. For the same molecule, the “I 50%” value [12] was 0.015 nanograms, the “I 50%” value [13] was 0.215 nanograms and the “I 50%” value [14] was 0.045 nanograms. The “I 50%” value [15] was 0.075 nanograms, the “I 50%” value [16] was 0.310 nanograms and the “I 50%” value [17] was 0.025 nanograms.
In the case of `CN1CCC[C@H]1c1cccnc1` [(S)-(-)-nicotine], the Kd [18] is reported as 20.8 nM, the Kd [19] is reported as 9.71 nM and the Kd [20] is reported as 8 nM. For the same molecule, the Kd [21] was 6.17 nM, the Kd [22] was 18.5 nM and the Kd [23] was 7.14 nM. The Kd [24] was 7.52 nM, the Kd [25] was 11.4 nM and the Kd [26] was 8.26 nM. The inhibition [2] was 15%, the “Stereospecificity for (S)-(-)-nicotine” value ([27]; range over all 9 anti-nicotine McAb, versus R-(+)-nicotine) was 5-45 fold and the 50% inhibition ([27]; range over the 9 antibodies, each McAb diluted to give A490 1.0-1.2 without inhibitor) was 0.091 to 0.51 ng. For the same molecule, the “required for 50% inhibition” value [28] was 3.9 ng.
`CCN1CCCC1c1cccnc1` (stereo not drawn) [N-ethylnornicotine] was tested, and the “inhibition (per cent in brackets)” value ([1]; at the 1,000 ng level) was 44%, the “Nanograms required for 50% inhibition” value [1, 29] was > 1,000 Nanograms and the “Nanograms required for 50% inhibition” value [2, 30] was 5.4 Nanograms.
`O=C(O)CCC(=O)c1cccnc1` [gamma-(3-pyridyl-gamma-oxobutyric acid] was tested, and the “Nanograms required for 50% inhibition” value [1, 29] was 410 Nanograms and the “Nanograms required for 50% inhibition” value [2, 30] was 1,920 Nanograms.
With `c1cncc([C@@H]2CCCCN2)c1` [anabasine] the “Nanograms required for 50% inhibition” value [1, 29] was 170 Nanograms and the “Nanograms required for 50% inhibition” value [2, 30] was 14.3 Nanograms.
